We go through 5 compounds from ChEMBL document CHEMBL3112452, “Neutral β-Lactams Inactivate High Molecular Mass Penicillin-Binding Proteins of Class B1, Including PBP2a of MRSA” (ACS Med Chem Lett, 2014).

Test [1] is described as follows: Inhibition of Staphylococcus aureus PBP2a.
The next test concerns Bacillus subtilis. In words: Antimicrobial activity against wild type Bacillus subtilis 168 after 18 hrs by serial dilution method. The format is functional. To be noted: subsp. subtilis str. 168, 18 h.
Test [2] in a line: Inhibition of Escherichia coli BL21(DE3) PBP2 after 30 mins by SDS-PAGE.
Another test concerns Escherichia coli. Description: Antimicrobial activity against wild type Escherichia coli MM 294 after 18 hrs by serial dilution method. It counts as functional. The conditions noted are these: MM 294, 18 h.
Test [3] has as its target T1, D-alanyl-D-alanine carboxypeptidase DacA (Bacillus subtilis (strain 168), UniProt P08750).
T1 sequence (P08750 whole entry): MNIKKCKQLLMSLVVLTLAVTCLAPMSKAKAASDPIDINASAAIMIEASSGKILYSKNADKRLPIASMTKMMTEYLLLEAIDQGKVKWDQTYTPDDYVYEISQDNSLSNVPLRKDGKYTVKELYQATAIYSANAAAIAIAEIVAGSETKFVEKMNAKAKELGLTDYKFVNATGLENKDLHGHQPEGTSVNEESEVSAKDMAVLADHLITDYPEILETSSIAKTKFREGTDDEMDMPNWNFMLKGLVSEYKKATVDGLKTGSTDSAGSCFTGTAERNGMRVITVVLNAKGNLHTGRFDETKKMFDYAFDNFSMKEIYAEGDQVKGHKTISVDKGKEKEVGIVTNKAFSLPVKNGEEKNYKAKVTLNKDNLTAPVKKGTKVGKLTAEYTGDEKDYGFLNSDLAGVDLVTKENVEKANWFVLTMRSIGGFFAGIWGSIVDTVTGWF
Description: Inhibition of Bacillus subtilis 168 PBP5 after 30 mins by SDS-PAGE. Set-up: species or system Bacillus subtilis subsp. subtilis str. 168.

A short description of test [4]: Inhibition of Escherichia coli PBP4 after 30 mins by SDS-PAGE.
Test [5] is described as follows: Inhibition of Bacillus subtilis 168 PBP2 after 30 mins by SDS-PAGE. Also on record: species or system Bacillus subtilis subsp. subtilis str. 168.
In test [6] the target is T2, Penicillin-binding protein 4 (Bacillus subtilis (strain 168), UniProt P40750).
T2 sequence (P40750 whole entry): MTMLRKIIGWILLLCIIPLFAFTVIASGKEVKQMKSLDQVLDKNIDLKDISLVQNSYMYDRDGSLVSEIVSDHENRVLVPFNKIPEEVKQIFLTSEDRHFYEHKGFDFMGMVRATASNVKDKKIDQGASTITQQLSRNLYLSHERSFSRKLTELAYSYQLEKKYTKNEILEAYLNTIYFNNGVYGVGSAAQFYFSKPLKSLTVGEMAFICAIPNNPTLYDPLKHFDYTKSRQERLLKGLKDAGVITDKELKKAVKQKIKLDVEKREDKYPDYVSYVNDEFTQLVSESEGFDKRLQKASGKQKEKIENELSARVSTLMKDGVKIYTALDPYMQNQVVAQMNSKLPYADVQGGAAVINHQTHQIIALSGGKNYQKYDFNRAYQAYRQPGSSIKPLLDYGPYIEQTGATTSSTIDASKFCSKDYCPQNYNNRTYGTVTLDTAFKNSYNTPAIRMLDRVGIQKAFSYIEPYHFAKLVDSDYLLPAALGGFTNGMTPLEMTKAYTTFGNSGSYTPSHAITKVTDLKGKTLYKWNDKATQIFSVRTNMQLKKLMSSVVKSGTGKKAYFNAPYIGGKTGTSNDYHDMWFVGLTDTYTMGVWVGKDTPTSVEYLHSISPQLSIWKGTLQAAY
Description: Inhibition of Bacillus subtilis 168 PBP4 after 30 mins by SDS-PAGE. Set-up: species or system Bacillus subtilis subsp. subtilis str. 168.

The next test concerns Bacillus licheniformis. In words: Antimicrobial activity against Bacillus licheniformis NRS 1264 after 18 hrs by serial dilution method. It counts as functional. To be noted: NRS 1264, 18 h.
Test [7] deals with T3, Penicillin-binding protein 3 (Bacillus subtilis (strain 168), UniProt P42971).
T3 sequence (P42971 whole entry): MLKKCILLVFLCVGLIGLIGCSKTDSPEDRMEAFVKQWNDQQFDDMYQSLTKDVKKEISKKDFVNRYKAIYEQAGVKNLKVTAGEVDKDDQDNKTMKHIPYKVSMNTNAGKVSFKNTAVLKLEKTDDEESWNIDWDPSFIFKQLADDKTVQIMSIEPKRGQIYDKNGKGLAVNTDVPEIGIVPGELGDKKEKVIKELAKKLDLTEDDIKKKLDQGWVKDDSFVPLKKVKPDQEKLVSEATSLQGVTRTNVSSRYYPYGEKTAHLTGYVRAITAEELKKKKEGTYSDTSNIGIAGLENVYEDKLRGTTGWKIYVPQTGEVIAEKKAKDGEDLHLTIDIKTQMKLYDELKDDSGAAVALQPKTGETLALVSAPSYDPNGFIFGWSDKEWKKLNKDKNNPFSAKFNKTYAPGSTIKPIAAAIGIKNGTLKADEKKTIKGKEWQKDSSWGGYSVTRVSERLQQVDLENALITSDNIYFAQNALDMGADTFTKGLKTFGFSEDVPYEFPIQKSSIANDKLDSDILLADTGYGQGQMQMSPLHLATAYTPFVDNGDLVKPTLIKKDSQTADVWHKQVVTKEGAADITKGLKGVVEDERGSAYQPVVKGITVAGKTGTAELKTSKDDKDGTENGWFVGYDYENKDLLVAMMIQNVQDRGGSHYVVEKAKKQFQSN
Description: Inhibition of Bacillus subtilis 168 PBP3 after 30 mins by SDS-PAGE. Also on record: species or system Bacillus subtilis subsp. subtilis str. 168.

Test [8] is described as follows: Inhibition of Escherichia coli PBP5/6 after 30 mins by SDS-PAGE.
Test [9] can be described thus: Inhibition of Bacillus subtilis 168 PBP1 after 30 mins by SDS-PAGE. Set-up: species or system Bacillus subtilis subsp. subtilis str. 168.
A short description of test [10]: Inhibition of Escherichia coli PBP1a/1b after 30 mins by SDS-PAGE.
Test [11] in a line: Inhibition of Escherichia coli PBP3 after 30 mins by SDS-PAGE.
For test [12], the system named is Staphylococcus epidermidis. In words: Antimicrobial activity against wild type Staphylococcus epidermidis ATCC 12228 after 18 hrs by serial dilution method. To be noted: ATCC 12228, 18 h. The format is functional.

≈ marks a conversion by molar mass, not a printed value.

The MIC is the least concentration at which growth counts as inhibited. A high value points to weaker potency. Turning to `COC(=O)[C@@H]1N2C(=O)[C@@H](NC(=O)COc3ccccc3)[C@H]2SC1(C)C`, the “Second-order inactivation rate constant (kinact/Ki)” value in test [1] was determined as 1.5 M⁻¹ s⁻¹. Besides, the MIC against Bacillus subtilis was determined as 25 µM (≈ 9.11 µg/mL).

As to `CC1(C)S[C@@H]2[C@H](NC(=O)COc3ccccc3)C(=O)N2[C@H]1C(N)=O`, the Ki in test [2] was found to be 1.5 M⁻¹ s⁻¹; in test [3] it was 17 M⁻¹ s⁻¹; in [4], 30 M⁻¹ s⁻¹; in test [5] it was 440 M⁻¹ s⁻¹; in test [6] it was 190 M⁻¹ s⁻¹; in test [7], 5.3 M⁻¹ s⁻¹. Moreover, the Ki was 0.6 M⁻¹ s⁻¹ in [8], 340 M⁻¹ s⁻¹ in test [9], 0.74 M⁻¹ s⁻¹ in [10] and 18 M⁻¹ s⁻¹ in test [11]. The minimal inhibitory concentration (MIC) against Escherichia coli came to 10 mM (≈ 3490 µg/mL); in the test with Bacillus licheniformis, 1.5 µM (≈ 0.524 µg/mL); against Bacillus subtilis, 2.3 µM (≈ 0.804 µg/mL); in test [12] it was 95 µM (≈ 33.2 µg/mL). Moreover, in test [1], the “Second-order inactivation rate constant (kinact/Ki)” value was 2 M⁻¹ s⁻¹.

With `CC1(C)S[C@@H]2[C@H](NC(=O)COc3ccccc3)C(=O)N2[C@H]1C(=O)O` [PENICILLIN V], the Ki in [2] was 128 M⁻¹ s⁻¹; in [3] it was 620 M⁻¹ s⁻¹; in test [4] it was 3200 M⁻¹ s⁻¹; in test [7], 28 M⁻¹ s⁻¹; in [8], 96 M⁻¹ s⁻¹; in test [10] it was 184 M⁻¹ s⁻¹. The Ki in test [11] was found to be 420 M⁻¹ s⁻¹. In addition, the MIC in the test on Escherichia coli was 0.75 mM (≈ 263 µg/mL); in the test on Bacillus licheniformis, 1500 µM (≈ 526 µg/mL); against Bacillus subtilis it was 1400 µM (≈ 491 µg/mL); in test [12], 370 µM (≈ 130 µg/mL). Besides, the kinact/Ki was determined as 19000 M⁻¹ s⁻¹ in [5] and 110000 M⁻¹ s⁻¹ in [9].

As to `CC(=O)OCC1=C(C(N)=O)N2C(=O)[C@@H](NC(=O)Cc3cccs3)[C@H]2SC1`, the “Second-order inactivation rate constant (kinact/Ki)” value in test [1] was 1.3 M⁻¹ s⁻¹.

As to `CC1=CN2C(=O)[C@@H](NC(=O)[C@H](N)c3ccccc3)[C@H]2SC1`, the “Second-order inactivation rate constant (kinact/Ki)” value in test [1] was determined as 0.34 M⁻¹ s⁻¹.
